Assay results as given in paper PMC8072890, “Aminoalkylamides of Eremomycin Exhibit an Improved Antibacterial Activity” (Pharmaceuticals, 2021).

What was measured:
S. pneumoniae ATCC 6305 = test: MIC, broth dilution micromethod (CLSI); format: cell-based; conditions: sensitive strain, modal values (or range) of 3–5 independent tests
Source text: (§1) The antimicrobial activity of semisynthetic derivatives of eremomycin 4a–q was studied in comparison with vancomycin on a wide panel of Gram-positive bacteria sensitive (Staphylococcus aureus ATCC 29213, S. aureus R-2, S. haemoliticus 602, S. pneumoniae ATCC 6305, Enteroccus faecium 4, and E. faecalis 559) and resistant to vancomycin (S. aureus 3797, S.aureus 3798, E. faecium 2, E. faecium 3576, E. faecalis 9, E. faecalis 583, and E. gallinarum BΠ 4147), information about the strains given in Table S3. The minimum microbial inhibitory concentration (MIC) for the test compounds was determined by the broth dilution micromethod according to CLSI guidelines, and vancomycin and a standard strain S. aureus ATCC 29213 used as controls (Figure 2 and Tables S4 and S5).
(§2) Table S4. Antibacterial activity of vancomycin and derivatives 4a–q against sensitive Gram-positive bacteria.
(§3) Strain/MIC (Minimum inhibitory concentration, μg/ml)*
(§4) Compound m n R S.aureus АТСС S.aureus R-2 S.haemoliticus S.pneumoniae АТСС E. faecium 4 E. faecalis 559
(§5) *MICs are presented as modal values for 3–5 independently replicated MIC tests for each strain and for the antibiotics. In the range of the
(§6) obtained MIC values, the obtained modal values are highlighted in bold.

E. faecium 4 = format: cell-based; conditions: sensitive strain; broth dilution micromethod, CLSI; modal values (or range) of 3–5 independent tests
Source text: as §1, §2, §3, §4, §5, §6

E. faecalis 559 = format: cell-based; conditions: sensitive strain; broth dilution micromethod, CLSI; modal values (or range) of 3–5 independent tests
Source text: as §1, §2, §3, §4, §5, §6

S. haemoliticus 602 = format: cell-based; conditions: sensitive strain; broth dilution micromethod, CLSI; modal values (or range) of 3–5 independent tests
Source text: as §1, §2, §3, §4, §5, §6

[1] = system: Staphylococcus aureus ATCC 29213; format: cell-based; conditions: vancomycin-sensitive control strain; broth dilution micromethod, CLSI; modal values (or range) of 3–5 independent tests
Source text: as §1, §2, §3, §4, §5, §6

S. aureus R-2 = format: cell-based; conditions: sensitive strain; broth dilution micromethod, CLSI; modal values (or range) of 3–5 independent tests
Source text: as §1, §2, §3, §4, §5, §6

E. faecium 2 = format: cell-based; conditions: strain resistant to vancomycin; broth dilution micromethod, CLSI; modal values (or range) of 3–5 independent tests
Source text: as §1
(§7) Table S5. Antibacterial activity of vancomycin and derivatives 4a–q against resistant Gram-positive bacteria.
(§8) Strain/MIC (minimum inhibitory concentration; μg/ml)
(§9) Compound m n R S.aureus 3797 S.aureus 3798 E. faecium 2 E. faecium 3576 E. faecalis 9 E. faecalis 583 E. gallinarum
(§10) *MICs are presented as modal values for 3–5 independently replicate MIC tests for each strain and for the antibiotics. In the range of the obtained MIC
(§11) values, the obtained modal values are highlighted in bold.

E. gallinarum BΠ 4147 = format: cell-based; conditions: strain resistant to vancomycin; broth dilution micromethod, CLSI; modal values (or range) of 3–5 independent tests
Source text: as §1, §7, §8, §9, §10, §11

S.aureus 3798 = format: cell-based; conditions: strain resistant to vancomycin; broth dilution micromethod, CLSI; modal values (or range) of 3–5 independent tests
Source text: as §1, §7, §8, §9, §10, §11

S. aureus 3797 = format: cell-based; conditions: strain resistant to vancomycin; broth dilution micromethod, CLSI; modal values (or range) of 3–5 independent tests
Source text: as §1, §7, §8, §9, §10, §11

E. faecium 3576 = format: cell-based; conditions: strain resistant to vancomycin; broth dilution micromethod, CLSI; modal values (or range) of 3–5 independent tests
Source text: as §1, §7, §8, §9, §10, §11

E. faecalis 9 = format: cell-based; conditions: strain resistant to vancomycin; broth dilution micromethod, CLSI; modal values (or range) of 3–5 independent tests
Source text: as §1, §7, §8, §9, §10, §11

E. faecalis 583 = format: cell-based; conditions: strain resistant to vancomycin; broth dilution micromethod, CLSI; modal values (or range) of 3–5 independent tests
Source text: as §1, §7, §8, §9, §10, §11

[2] = system: S. aureus (strain 10, clinical isolate); test: Mouse staphylococcal sepsis model, single IV administration; format: in vivo, mice (SHK colony); conditions: for Survival: single IV, 30 min after infection, n = 10
Experimental: A comparative study of the efficacy of eremomycin N-(2-((2-fluorobenzyl)amino)ethyl)amide (4e) and vancomycin was carried out in a mice staphylococcal sepsis model. Healthy female mice of the SHK colony weighing 20–22 g after two-week quarantine were randomized into groups (n = 10) and received S. aureus as the infectious agent (strain 10, clinical isolate, adapted for growth in vivo by five-fold passaging in mice). In the experiment, female mice of the SHK colony weighing 20–22 g were used. S. aureus (strain 10, clinical isolate), adapted for growth in vivo by five-fold passaging in mice, was used as the infectious agent. Initially, the lethal dose (LD100) of staphylococcus was determined for this mouse line using the intravenous infection route. The mice deaths were counted daily for 10 days. Thus, the lethal dose (LD100) was defined as 8 × 10^8 CFU/mouse. Afterwards, the mice were seated in cages of 10 heads and were infected intravenously with S. aureus at a lethal dose, and the efficacy of the tested drugs was determined by the ED50 value (i.e., the dose at which 50% of the experimental animals survive). Then, 30 min after infection, the mice were injected intravenously with eremomycin N-(2-((2-fluorobenzyl)amino)ethyl)amide (4e) at single doses from 0.1 to 2.5 mg/kg. or vancomycin at doses from 2.5 to 7.5 mg/kg. As a control dose, a group of untreated animals infected with a lethal dose of S. aureus was present in the experiment. The determination of ED50 of the tested compounds was carried out in one experiment under a single control using the Behrens method.

MIC S.pneumoniae ATCC 6305 (S. pneumoniae ATCC 6305) | MIC E. faecium 4 (E. faecium 4) | MIC E. faecalis 559 (E. faecalis 559) | MIC S.haemoliticus 602 (S. haemoliticus 602) | MIC S.aureus ATCC 29213 [1] | MIC S.aureus R-2 (S. aureus R-2) | MIC E. faecium 2 (E. faecium 2) | MIC E. gallinarum ВП 4147 (E. gallinarum BΠ 4147) | MIC S.aureus 3798 (S.aureus 3798) | MIC S.aureus 3797 (S. aureus 3797) | MIC E. faecium 3576 (E. faecium 3576) | MIC E. faecalis 9 (E. faecalis 9) | MIC E. faecalis 583 (E. faecalis 583) | Substance | Survival ([2]; dose 0.5 mg/kg) | Survival ([2]; dose 1.5 mg/kg) | Survival ([2]; dose 2.5 mg/kg) | Survival ([2]; dose 3.5 mg/kg) | Survival ([2]; dose 4.5 mg/kg) | Survival ([2]; dose 5.5 mg/kg) | ED50 ([2]; mice infected IV with lethal dose of S. aureus (8 × 10^8 CFU/mouse), single IV dose 30 min after infection, n = 10 per group, observed 14 days, Behrens method)
0.01 µg/mL | 0.25 µg/mL | 0.25 µg/mL | 0.25 µg/mL | 0.25 µg/mL | 0.25 µg/mL | 1 µg/mL | 0.5 µg/mL | 1 µg/mL | 0.5 µg/mL | 1 µg/mL | 0.03 µg/mL | 1 to 2 µg/mL | Eremomycin N-(2-((4-methylbenzyl)amino)ethyl)amide [4c] |  |  |  |  |  |  | 
0.01 µg/mL | 0.5 µg/mL | 0.5 µg/mL | 0.5 µg/mL | 0.5 µg/mL | 0.06 µg/mL | 1 µg/mL | 1 µg/mL | 2 µg/mL | 1 µg/mL | 2 µg/mL | 0.06 µg/mL | 0.5 µg/mL | Eremomycin N-(2-phenethylamino)ethyl)amide [4b] |  |  |  |  |  |  | 
0.01 µg/mL | 0.25 µg/mL | 0.25 to 0.5 µg/mL | 0.5 µg/mL | 0.03 µg/mL | 0.06 µg/mL | 0.5 µg/mL | 1 µg/mL | 2 µg/mL | 1 µg/mL | 1 µg/mL | 0.03 µg/mL | 0.5 to 1 µg/mL | Eremomycin N-(2-((3-fluorobenzyl)amino)ethyl)amide [4g] |  |  |  |  |  |  | 
0.01 µg/mL | 1 µg/mL | 1 µg/mL | 0.25 to 0.5 µg/mL | 0.25 µg/mL | 0.25 µg/mL | 1 µg/mL | 2 µg/mL | 4 µg/mL | 1 to 2 µg/mL | 4 µg/mL | 0.25 µg/mL | 1 µg/mL | Eremomycin N-(2-((2,3,4,5,6-pentafluorobenzyl)amino)ethyl)amide [4p] |  |  |  |  |  |  | 
00.03 µg/mL | 0.25 µg/mL | 0.5 µg/mL | 0.25 µg/mL | 0.125 to 0.25 µg/mL | 0.25 µg/mL | 0.5 µg/mL | 0.5 µg/mL | 1 µg/mL | 0.25 to 0.5 µg/mL | 1 µg/mL | 0.06 µg/mL | 0.5 to 1 µg/mL | Eremomycin N-(2-((4-chlorobenzyl)amino)ethyl)amide [4i] |  |  |  |  |  |  | 
0.06 µg/mL | 0.5 µg/mL | 0.5 to 1 µg/mL | 0.125 µg/mL | 0.25 µg/mL | 0.125 to 0.25 µg/mL | 1 µg/mL | 2 µg/mL | 2 µg/mL | 2 µg/mL | 2 µg/mL | 0.25 to 0.5 µg/mL | 1 µg/mL | Eremomycin N-(2-((2-chloro-6-fluorobenzyl)ethyl)amide [4m] |  |  |  |  |  |  | 
0.03 µg/mL | 0.25 µg/mL | 0.25 to 0.5 µg/mL | 0.25 to 0.5 µg/mL | 0.125 µg/mL | 0.03 µg/mL | 1 µg/mL | 0.5 µg/mL | 2 µg/mL | 0.5 µg/mL | 1 µg/mL | 0.06 µg/mL | 1 µg/mL | Eremomycin N-(2-((2-fluorobenzyl)amino)propyl)amide [4f] |  |  |  |  |  |  | 
0.01 µg/mL | 0.25 µg/mL | 0.5 µg/mL | 0.25 µg/mL | 0.03 µg/mL | 0.06 µg/mL | 0.5 µg/mL | 1 µg/mL | 0.5 to 1 µg/mL | 0.5 µg/mL | 0.5 to 1 µg/mL | 0.03 µg/mL | 0.5 µg/mL | Eremomycin N-(2-((4-methoxybenzyl)amino)ethyl)amide [4d] |  |  |  |  |  |  | 
0.01 µg/mL | 0.5 µg/mL | 0.5 µg/mL | 0.125 µg/mL | 0.25 µg/mL | 0.125 to 0.25 µg/mL | 1 µg/mL | 1 µg/mL | 1 µg/mL | 0.5 µg/mL | 1 µg/mL | 0.06 µg/mL | 1 µg/mL | Eremomycin N-(2-((3,5-difluorobenzyl)amino)ethyl)amide [4k] |  |  |  |  |  |  | 
0.03 to 0.06 µg/mL | 1 µg/mL | 1 µg/mL | 0.25 µg/mL | 0.5 µg/mL | 0.25 to 0.5 µg/mL | 2 µg/mL | 2 µg/mL | 2 µg/mL | 1 µg/mL | 2 µg/mL | 0.25 µg/mL | 2 µg/mL | Eremomycin N-(2-((2,4-dichlorobenzyl)amino)ethyl)amide [4n] |  |  |  |  |  |  | 
0.01 µg/mL | 0.25 µg/mL | 0.125 µg/mL | 0.25 µg/mL | 0.25 µg/mL | 0.06 µg/mL | 0.5 µg/mL | 0.5 to 1 µg/mL | 0.5 µg/mL | 0.25 µg/mL | 2 µg/mL | 0.03 µg/mL | 0.5 to 1 µg/mL | Eremomycin N-(2-((4-fluorobenzyl)amino)ethyl)amide [4h] |  |  |  |  |  |  | 
 |  |  |  |  |  |  |  |  |  |  |  |  | Eremomycin | 20% | 40% | 80% | 80% | 100% | 100% | 1.8 mg/kg
